Assay results as given in patent publication US9809574B2, “Isoindoline or isoquinoline compounds, a process for their preparation and pharmaceutical compositions containing them” (LES LABORATOIRES SERVIER, priority 2013, dated 2017).
Where a name gives a salt, the structure may show the parent alone.

Tests used:
Bcl-2 protein = Bcl-2 protein (histag-Bcl-2, UniProtKB P10415) (Homo sapiens (Human), UniProt P10415); assay: Inhibition of Bcl-2 by the fluorescence polarisation technique; assay type: binding; settings: fluorescence polarisation test; incubation for 2 hours; read-out: IC50 (nM) Bcl-2 FP
Chain of Bcl-2 protein (P10415 whole entry): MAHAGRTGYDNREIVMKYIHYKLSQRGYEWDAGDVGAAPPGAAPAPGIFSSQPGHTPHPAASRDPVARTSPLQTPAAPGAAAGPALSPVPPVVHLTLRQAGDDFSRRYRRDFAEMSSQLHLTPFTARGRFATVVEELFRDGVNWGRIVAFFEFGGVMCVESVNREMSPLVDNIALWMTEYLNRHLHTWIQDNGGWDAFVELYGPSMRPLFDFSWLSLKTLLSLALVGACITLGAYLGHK
Description: For partial inhibitors, the percentage fluorescence polarisation inhibition for a given concentration of the test compound is indicated.

[1] = test system: RS4; 11 leukaemia cell line; assay: In vitro cytotoxicity, Microculture Tetrazolium Assay (MTT); assay type: cell-based; settings: 11 cells exposed for 48 hours
Procedure: The cytotoxicity studies were carried out on the RS4; 11 leukaemia cell line and on H146 small Cell Lung Carcinoma cell line. The cells are distributed onto microplates and exposed to the test compounds for 48 hours. The cell viability is then quantified by a colorimetric assay, the Microculture Tetrazolium Assay (Cancer Res., 1987, 47, 939-942).

| SMILES | IC50 (Bcl-2 protein) | IC50 ([1]; Homo sapiens) | IC50 [1] |
| --- | --- | --- | --- |
| Cc1c(C(=O)N(C)c2ccc(O)cc2)cc(-c2cc3c(cc2C(=O)N2Cc4ccccc4C[C@H]2CN(C)C)CN(C(=O)Cc2ccccc2)CC3)n1C [Example 777, 5-{7-[(3S)-3-[(Dimethylamino)methyl]-1,2,3,4-tetrahydroisoquinoline-2-carbonyl]-2-(2-phenylacetyl)-1,2,3,4-tetrahydroisoquinolin-6-yl}-N-(4-hydroxyphenyl)-N,1,2-trimethyl-1H-pyrrole-3-carboxamide] | 4.1 nM | 30 nM |  |
| C[C@@H]1Cc2ccccc2CN1C(=O)c1cc2c(cc1-c1cc(C(=O)N(C)c3ccc(O)cc3)c3n1CCCC3)CN(C(=O)C1CC1)C2 [Example 20, 3-{2-Cyclopropanecarbonyl-6-[(3R)-3-methyl-1,2,3,4-tetrahydroisoquinoline-2-carbonyl]-2,3-dihydro-1H-isoindol-5-yl}-N-(4-hydroxyphenyl)-N-methyl-5,6,7,8-tetrahydroindolizine-1-carboxamide] | 20 nM | > 150 nM |  |
| Cc1ccc(OC(=O)N2Cc3cc(C(=O)N4Cc5ccccc5C[C@H]4C)c(-c4cc(C(=O)N(C)c5ccc(O)cc5)c5n4CCCC5)cc3C2)cc1 [Example 168, 4-Methylphenyl 5-{1-[(4-hydroxyphenyl)(methyl)carbamoyl]-5,6,7,8-tetrahydroindolizin-3-yl}-6-[(3R)-3-methyl-1,2,3,4-tetrahydroisoquinoline-2-carbonyl]-2,3-dihydro-1H-isoindole-2-carboxylate] | 5.7 nM | 6.6 nM |  |
| Cc1cccc(OC(=O)N2CCc3cc(-c4cc(C(=O)N(C)c5ccc(O)cc5)c5n4CCCC5)c(C(=O)N4Cc5ccccc5C[C@H]4CN4CCOCC4)cc3C2)c1 [Example 99, 3-Methylphenyl 6-{1-[(4-hydroxyphenyl)(methyl)carbamoyl]-5,6,7,8-tetrahydroindolizin-3-yl}-7-[(3S)-3-(morpholin-4-ylmethyl)-1,2,3,4-tetrahydroisoquinoline-2-carbonyl]-1,2,3,4-tetrahydroisoquinoline-2-carboxylate] | 5.5 nM | 13 nM |  |
| C[C@@H]1Cc2ccccc2CN1C(=O)c1cc2c(cc1-c1cc(C(=O)N(C)c3ccc(O)cc3)c3n1CCCC3)CN(Cc1ccccn1)C2 [Example 28, N-(4-Hydroxyphenyl)-N-methyl-3-{6-[(3R)-3-methyl-1,2,3,4-tetrahydroisoquinoline-2-carbonyl]-2-(pyridin-2-ylmethyl)-2,3-dihydro-1H-isoindol-5-yl}-5,6,7,8-tetrahydroindolizine-1-carboxamide] | 23 nM | > 150 nM |  |
| Cc1ccc(OC(=O)N2CCc3cc(-c4cc(C(=O)N(C)c5ccc(O)cc5)c5n4CCCC5)c(C(=O)N4Cc5ccccc5C[C@H]4CN4CCOCC4)cc3C2)cc1 [Example 98, 4-Methylphenyl 6-{1-[(4-hydroxyphenyl)(methyl)carbamoyl]-5,6,7,8-tetrahydroindolizin-3-yl}-7-[(3S)-3-(morpholin-4-ylmethyl)-1,2,3,4-tetrahydroisoquinoline-2-carbonyl]-1,2,3,4-tetrahydroisoquinoline-2-carboxylate hydrochloride] | 3.8 nM | 1.8 nM |  |
| Cc1c(C(=O)N(C)c2ccc(O)cc2)cc(-c2cc3c(cc2C(=O)N2Cc4ccccc4C[C@H]2CN2CCN(C)CC2)CN(C(=O)Cc2ccccc2)CC3)n1C [Example 778, N-(4-Hydroxyphenyl)-N,1,2-trimethyl-5-{7-[(3S)-3-[(4-methylpiperazin-1-yl)methyl]-1,2,3,4-tetrahydroisoquinoline-2-carbonyl]-2-(2-phenylacetyl)-1,2,3,4-tetrahydroisoquinolin-6-yl}-1H-pyrrole-3-carboxamide] | 3.1 nM | 52 nM |  |
| CCCCN(CCCC)C(=O)c1cc(-c2cc3c(cc2C(=O)N2Cc4ccccc4C[C@H]2CN2CCOCC2)CN(C(=O)Oc2ccccc2)CC3)n(C)c1C [Example 197, Phenyl 6-[4-(dibutylcarbamoyl)-1,5-dimethyl-1H-pyrrol-2-yl]-7-[(3S)-3-(morpholin-4-ylmethyl)-1,2,3,4-tetrahydroisoquinoline-2-carbonyl]-1,2,3,4-tetrahydroisoquinoline-2-carboxylate] | 26 nM | > 150 nM |  |
| C[C@@H]1Cc2ccccc2CN1C(=O)c1cc2c(cc1-c1cc(C(=O)N(c3ccccc3)c3ccc(O)cc3)c3n1CCCC3)CN(C(=O)OC(C)(C)C)C2 [Example 43, tert-Butyl 5-{1-[(4-hydroxyphenyl)(phenyl)carbamoyl]-5,6,7,8-tetrahydroindolizin-3-yl}-6-[(3R)-3-methyl-1,2,3,4-tetrahydroisoquinoline-2-carbonyl]-2,3-dihydro-1H-isoindole-2-carboxylate] | 77 nM | 502 nM |  |
| Cc1c(C(=O)N(C)c2ccc(O)cc2)cc(-c2cc3c(cc2C(=O)N2Cc4ccccc4C[C@H]2C)CN(C(=O)OC2CCC(N)CC2)CC3)n1C (stereo partly drawn) [Example 801, (1r,4r)-4-Aminocyclohexyl 6-{4-[(4-hydroxyphenyl)(methyl)carbamoyl]-1,5-dimethyl-1H-pyrrol-2-yl}-7-[(3R)-3-methyl-1,2,3,4-tetrahydroisoquinoline-2-carbonyl]-1,2,3,4-tetrahydroisoquinoline-2-carboxylate hydrochloride] | 2.7 nM |  | > 150 nM |
| Cc1c(C(=O)N(C)c2ccc(O)cc2)cc(-c2cc3c(cc2C(=O)N2Cc4ccccc4C[C@H]2C)CN(C(=O)NCc2ccccc2)C3)n1C [Example 111, N-Benzyl-5-{4-[(4-hydroxyphenyl)(methyl)carbamoyl]-1,5-dimethyl-1H-pyrrol-2-yl}-6-[(3R)-3-methyl-1,2,3,4-tetrahydroisoquinoline-2-carbonyl]-2,3-dihydro-1H-isoindole-2-carboxamide] | 8.4 nM | 64 nM |  |
| CN(C(=O)c1cc(-c2cc3c(cc2C(=O)N2Cc4ccccc4C[C@H]2CN2CCOCC2)CN(S(=O)(=O)CCc2ccccc2)C3)n2c1CCCC2)c1ccc(O)cc1 [Example 21, N-(4-Hydroxyphenyl)-N-methyl-3-{6-[(3S)-3-(morpholin-4-ylmethyl)-1,2,3,4-tetrahydroisoquinoline-2-carbonyl]-2-(2-phenylethanesulfonyl)-2,3-dihydro-1H-isoindol-5-yl}-5,6,7,8-tetrahydroindolizine-1-carboxamide hydrochloride] | 14 nM | 112 nM |  |
| Cc1ccc(CC(=O)N2CCc3cc(-c4cc(C(=O)N(C)c5ccc(O)cc5)c5n4CCCC5)c(C(=O)N4Cc5ccccc5C[C@H]4C)cc3C2)cc1 [Example 54, N-(4-Hydroxyphenyl)-N-methyl-3-{7-[(3R)-3-methyl-1,2,3,4-tetrahydroisoquinoline-2-carbonyl]-2-[2-(4-methylphenyl)acetyl]-1,2,3,4-tetrahydroisoquinolin-6-yl}-5,6,7,8-tetrahydroindolizine-1-carboxamide] | 4 nM | 2.4 nM |  |
| CCCCN(C(=O)c1cc(-c2cc3c(cc2C(=O)N2Cc4ccccc4C[C@H]2CN2CCOCC2)CN(C(=O)Cc2ccccc2)CC3)n(C)c1C)c1ccc(O)cc1 [Example 232, N-Butyl-N-(4-hydroxyphenyl)-1,2-dimethyl-5-{7-[(3S)-3-(morpholin-4-ylmethyl)-1,2,3,4-tetrahydroisoquinoline-2-carbonyl]-2-(2-phenylacetyl)-1,2,3,4-tetrahydroisoquinolin-6-yl}-1H-pyrrole-3-carboxamide] | 2.9 nM | 11 nM |  |
